From patent publication US9999221B2, “Herbicide combination containing pelargonic acid and defined ALS inhibitors” (BAYER CROPSCIENCE AKTIENGESELLSCHAFT, priority 2013, dated 2018)

What was measured:
Test in all cases: Post-emergence test, % damage
Format in all cases: in vivo
Details in all cases: after 48 days
Chenopodium album = test system: Chenopodium album
Source text: (§1) After 48 days, the degree of damage to the plants is rated in % damage in comparison to the development of the untreated control.

Festuca ovina = test system: Festuca ovina
Source text: as §1

Taraxacum officinale = test system: Taraxacum officinale
Source text: as §1

Trifolium repens = test system: Trifolium repens
Source text: as §1

Plantago major = test system: Plantago major
Source text: as §1

Poa annua = test system: Poa annua
Source text: as §1

[1] = Pelargonic acid 10000 g of active compound/ha
[2] = Pelargonic acid 20000 g of active compound/ha
[3] = Pelargonic acid 30000 g of active compound/ha
[4] = Iodosulfuron-methyl 1 g of active compound/ha
[5] = Iodosulfuron-methyl 1.25 g of active compound/ha
[6] = Iodosulfuron-methyl 2.5 g of active compound/ha
[7] = Iodosulfuron-methyl 10 g of active compound/ha

**Q.** What does the source list for `CCCCCCCCC(=O)O` [Pelargonic acid, nonanoic acid]?
**A.** herbicidal effect [%] (Chenopodium album; [1]): 0%; herbicidal effect [%] (Chenopodium album; [2]): 10%; herbicidal effect [%] (Chenopodium album; [3]): 20%; herbicidal effect [%] (Festuca ovina; [1]): 0%; herbicidal effect [%] (Festuca ovina; [2]): 0%; herbicidal effect [%] (Festuca ovina; [3]): 6.7%; herbicidal effect [%] (Taraxacum officinale; [1]): 6.7%; herbicidal effect [%] (Taraxacum officinale; [2]): 7%; herbicidal effect [%] (Taraxacum officinale; [3]): 20%; herbicidal effect [%] (Trifolium repens; [1]): 0%; herbicidal effect [%] (Trifolium repens; [2]): 0%; herbicidal effect [%] (Trifolium repens; [3]): 3.3%; herbicidal effect [%] (Plantago major; [1]): 0%; herbicidal effect [%] (Plantago major; [2]): 0%; herbicidal effect [%] (Plantago major; [3]): 13.3%; herbicidal effect [%] (Poa annua; [1]): 0%; herbicidal effect [%] (Poa annua; [2]): 0%; herbicidal effect [%] (Poa annua; [3]): 0%

**Q.** With “4-iodo-2-[(4-methoxy-6-methyl-1,3,5-triazin-2-yl)carbamoylsulfamoyl]benzoate, sodium salt [Iodosulfuron-methyl]” as the molecule, how does the “herbicidal effect [%]” value (Chenopodium album; [4]) read?
**A.** Its value is 0%.

**Q.** What about the “herbicidal effect [%]” value (Chenopodium album; [5]) of the same molecule?
**A.** The value was 0%.

**Q.** And the “herbicidal effect [%]” value (Chenopodium album; [6])?
**A.** The value was 10%.

**Q.** What about the “herbicidal effect [%]” value (Chenopodium album; [7]) of the same molecule?
**A.** Its value is 40%.

**Q.** What about the “herbicidal effect [%]” value (Festuca ovina; [4]) of the same molecule?
**A.** The value was 0%.

**Q.** What about the “herbicidal effect [%]” value (Festuca ovina; [5]) of the same molecule?
**A.** Its value is 0%.

**Q.** What about the “herbicidal effect [%]” value (Festuca ovina; [6]) of the same molecule?
**A.** Its value is 0%.

**Q.** What about the “herbicidal effect [%]” value (Festuca ovina; [7]) of the same molecule?
**A.** Its value is 6.7%.

**Q.** And the “herbicidal effect [%]” value (Taraxacum officinale; [4])?
**A.** Its value is 18.3%.

**Q.** What about the “herbicidal effect [%]” value (Taraxacum officinale; [5]) of the same molecule?
**A.** The value was 18%.

**Q.** What about the “herbicidal effect [%]” value (Taraxacum officinale; [6]) of the same molecule?
**A.** The value was 42%.

**Q.** And the “herbicidal effect [%]” value (Taraxacum officinale; [7])?
**A.** The value was 85%.

**Q.** What about the “herbicidal effect [%]” value (Trifolium repens; [4]) of the same molecule?
**A.** Its value is 18.3%.

**Q.** What about the “herbicidal effect [%]” value (Trifolium repens; [5]) of the same molecule?
**A.** The value was 32%.

**Q.** What about the “herbicidal effect [%]” value (Trifolium repens; [6]) of the same molecule?
**A.** The value was 45%.

**Q.** What about the “herbicidal effect [%]” value (Trifolium repens; [7]) of the same molecule?
**A.** Its value is 80%.

**Q.** And the “herbicidal effect [%]” value (Plantago major; [4])?
**A.** Its value is 0%.

**Q.** What about the “herbicidal effect [%]” value (Plantago major; [5]) of the same molecule?
**A.** The value was 3%.

**Q.** What about the “herbicidal effect [%]” value (Plantago major; [6]) of the same molecule?
**A.** Its value is 30%.

**Q.** And the “herbicidal effect [%]” value (Plantago major; [7])?
**A.** The value was 53.3%.

**Q.** And the “herbicidal effect [%]” value (Poa annua; [4])?
**A.** The value was 0%.

**Q.** And the “herbicidal effect [%]” value (Poa annua; [5])?
**A.** The value was 0%.

**Q.** And the “herbicidal effect [%]” value (Poa annua; [6])?
**A.** The value was 0%.

**Q.** What about the “herbicidal effect [%]” value (Poa annua; [7]) of the same molecule?
**A.** Its value is 0%.
